Test [1] has as its system S. aureus ATCC 29213. Particulars: Publicly-known data; cited from earlier work.
In test [2] the test system is P. aeruginosa ATCC 27853. Particulars: Publicly-known data; cited from earlier work.
The subject of test [3] is E. coli ATCC 25922. The settings on record: Publicly-known data; cited from earlier work.
In test [4] the test system is Pseudomonas aeruginosa (gfp expression PAO1-strain). In words: Evaluation test for biofilm formation inhibition effect against Pseudomonas aeruginosa (flow cell system). The test is classed as cell-based. Particulars: flow 200 μL per minute, observed after 1, 48, 60, 72, 84 hours. As to the method:
With the flow cell system shown in FIG. 1, an inhibitory effect against biofilm formation by Pseudomonas aeruginosa was evaluated for each of the amide compounds produced in Production Examples 1, 3, 5, 6 and 7 (Compounds 1a-1, 1b-1, 1c-1, 1c-2, 1d-1), and for each of Comparative Compounds (Comparative Example) 1 to 3 denoted by the following formulas.
A culture medium bottle (1), a peristaltic pump (2), a glass cell (4) and a waste fluid bottle (5) are connected via a silicon tube (6) so that a culture medium (9) is supplied to the glass cell (4) from the culture medium bottle (1) using the peristaltic pump (2). The system includes an air removal section (3) between the peristaltic pump (2) and a turncock (7a), for removing the entrained air. All instruments in the flow cell system are sterilized using gamma-rays or an autoclave.
As specifically described later, the inhibitory effect against biofilm formation of each of the amide compounds is examined in the following manner. Bacteria are cultured in a glass cell (4) to grow a biofilm on the inner wall of the cell, and a test liquid containing one of the amide compounds is applied to the biofilm. Then the state of the biofilm is observed to evaluate the inhibitory effect against biofilm formation of the compound using a fluorescence confocal microscope (Leica TCS SP2: product of Leica).
The bacteria was prepared by inserting a pTdk-LVAgfp plasmid into a Pseudomonas aeruginosa PAO1-strain using the electroportion method so that the Pseudomonas aeruginosa PAO1-strain is transformed to express Green Fluorescent Protein (hereinafter referred to as “gfp expression PAO1-strain”) (see Teresa R. et al., Applied and Environmental Microbiology, April 2001, p. 1865-1873).
A 30 mM glucose-containing FAB culture medium was used for preincubation, and a 0.3 mM glucose-containing FAB culture medium was used for main cultivation.
The glucose-containing FAB culture medium was prepared by adding 200 μg/mL of carbenicillin to an aqueous solution containing 30 mM glucose or 0.3 mM glucose, 15 mM ammonium sulfate, 33.7 mM disodium hydrogenphosphate dihydrate, 22.1 mM potassium dihydrogen phosphate, 51.7 mM sodium chloride, 0.47 mM magnesium chloride, 0.08 mM calcium chloride and the following 0.1% trace metal solution.
An aqueous solution containing 1.16 mM calcium sulfate dihydrate, 0.72 mM iron sulfate heptahydrate, 0.08 mM manganous sulfate monohydrate, 0.08 mM copper sulfate pentahydrate, 0.07 mM zinc sulfate heptahydrate, 0.04 mM cobalt sulfate heptahydrate, 0.04 mM […], and 0.08 mM boric acid.
A gfp expression PAO1-strain was inoculated in a 30 mM glucose-containing FAB culture medium, and was subjected to shake culture at 37° C. in an isothermal tank overnight. The obtained overnight culture liquid was diluted by a 30 mM glucose-containing FAB culture medium to OD590=0.1.
The test liquid was prepared by dissolving 100-250 μM of each of the Compounds 1a-1, 1b-1, 1c-1, 1c-2, or 1d-1 according to Production Examples 1, 3 and 5 to 7 and 100-250 μM of Comparative Compounds 1 to 3 as comparative examples in dimethyl sulfoxide (DMSO), and supplying the resulting DMSO solutions to a 0.3 mM glucose-containing FAB culture medium so that the concentration of each compound becomes 0.1%(v/v).
(§1) A DMSO not containing the compound was used as a control test liquid.
The flow cell system was filled with hydrous ethanol of 70 volume %, and was allowed to stand for at least 12 hours to sterilize the system. Then, air having been filtrated by a membrane filter (8a) was supplied into the flow cell system using the peristaltic pump (2) to dry the system. Thereafter, the system was filled with a 0.3 mM glucose-containing FAB culture medium. 500 μL of a bacterial suspension was injected into the glass cell (4) from the upper surface, and the glass cell was sealed by turning off the three-way turncock (7a,7b). The cell as such was allowed to stand for 1 hour at room temperature. […]

The test system of test [5] is Porphyromonas gingivalis 381-strain. Description: Evaluation test for biofilm formation inhibition effect against periodontitis pathogenic bacteria (flow cell, HA disks, turbidity). The settings on record: for Mean OD Value / inhibition of biofilm formation caused by periodontitis pathogenic bacteria (conclusion in words): 100 μM; for Mean OD Value: turbidity of suspended biofilm at 550 nm; for inhibition of biofilm formation caused by periodontitis pathogenic bacteria (conclusion in words): 14 days. The test is classed as cell-based. On the procedure:
As with Experiment Example 1, using the flow cell system of FIG. 1, an inhibitory effect against biofilm formation by periodontitis pathogenic bacteria was evaluated for each of the amide compounds produced in Production Examples 1, 3, 5, and 6 (Compounds 1a-1, 1b-1, 1c-1, 1c-2).
Periodontitis pathogenic bacteria Porphyromonas gingivalis 381-strain (clinical strain) was used.
A GAM culture medium containing hemin 5 μg/L and menadione 1 μg/L was used.
The 381-strain was inoculated in the GAM culture medium, and cultivated until stationary phase (OD550=1.8). Then the culture medium was diluted 20-fold by a fresh GAM culture medium containing the above-mentioned substances.
The test liquid was prepared by dissolving 100 μM of each of the Compounds 1a-1, 1b-1, 1c-1, or 1c-2 according to Production Examples 1, 3, 5 and 6 and 100 μM of Comparative Compounds 1 and 2 as comparative examples in dimethyl sulfoxide (DMSO), and supplying the resulting DMSO solutions to the above-mentioned bacterial suspensions so that the concentration of each compound becomes 0.1%(v/v).
as §1
The glass cell (4) of the flow cell system (see FIG. 1) was replaced with a stainless cell (3×7×120 mm), and 10 hydroxyapatite (HA) disks (6 mm in diameter, 1 mm in thickness) were placed in the cell. The HA disks had been subjected to salivary treatment overnight. Each of the test liquids and control test liquids was circulated in the system at a flow rate of 8 mL/min for 14 days. Note that the test liquids and the control test liquids were replaced with fresh liquids every two days.
After the cultivation, the HA disks were dipped in 300 μL of sterile distilled water, and treated by supersonic wave for 30 minutes at 4° C. The biofilms formed in the HA disks were peeled off and suspended in distilled water. Then, 100 μL of the suspension liquid was measured for the turbidity with an absorptiometer (C07500 colorimeter, product of Funakoshi) (measurement wavelength=550 nm).
A mean OD was found based on the resulting OD values, excluding the minimum and maximum values. Also, a mean value of the turbidities for the Control Test Liquids was found in the same manner as the control mean OD value. A biofilm formation inhibition rate (Inhibition Rate) was found by the following formula. Biofilm Formation Inhibition Rate (%)={(Mean OD Value)/(Mean Comparison OD Value)}×100

For test [6], the system named is Pseudomonas aeruginosa (gfp expression PAO1-strain). Description: Evaluation test for biofilm removal effect with respect to Pseudomonas aeruginosa (flow cell system). The test is classed as cell-based. The settings on record: test liquid 100 μM; for state of biofilm removal (disappearance of deposited biofilm, fluorescence confocal microscope): observed after 3, 4, 5, 6, 7 and 10 days; for time course of biofilm during removal test: up to 10 days. As to the method:
With the flow cell system of FIG. 1, a removal effect against biofilms formed by Pseudomonas aeruginosa was evaluated for each of the amide compounds produced in Production Examples 1, 3, 5, and 6 (Compounds 1a-1, 1b-1, 1c-1, 1c-2), and for Comparative Compounds 1 to 3 as comparative examples.
The evaluation for biofilm removal effect was performed as follows. After cultivation of bacterias in the glass cell (4) of the flow cell system to grow a biofilm in the inner cell wall, a test liquid containing one of the amide compounds was applied to the biofilm.
As with Experiment Example 1, a gfp expression PAO1-strain was used.
At for the culture medium, the glucose-containing FAB culture medium, trace metal solution, and bacterial suspension as those of Experiment Example 1 were used.
The test liquid was prepared by dissolving 100 μM of each of the Compounds 1a-1, 1b-1, 1c-1 and 1c-2 according to Production Examples 1, 3, 5 and 6 and 100 μM of Comparative Compounds 1 to 3 as comparative examples denoted by the following formula in dimethyl sulfoxide (DMSO), and supplying the resulting DMSO solutions to a 0.3 mM glucose-containing FAB culture medium so that the concentration of each compound becomes 0.1%(v/v).
as §1
The flow cell system was filled with hydrous ethanol (70 volume %), and was allowed to stand for at least 12 hours to sterilize the system. Then, air having been filtrated by a membrane filter (8a) was supplied into the flow cell system using the peristaltic pump (2) to dry the system. Thereafter, the system was filled with a 0.3 mM glucose-containing FAB culture medium. 500 μL of the bacterial suspension was injected into the glass cell (4) from the upper surface, and the glass cell was sealed by turning off the three-way turncock (7a,7b). The cell as such was allowed to stand for an hour at room temperature.
After the static culture, two of the three-way turncocks (7a,7b) were turned on, so as to supply each test liquid and control test liquid at a flow rate of 200 μL per minute. With a fluorescence confocal microscope, the process of biofilm formation (deposition) by the Pseudomonas aeruginosa (gfp expression PAO1-strain) adhered to the inner wall of the glass cell was observed three-dimensionally from above to observe changes over time (after 3 days, 4 days, 5 days, 6 days, 7 days, and 10 days). Note that the test liquid and the control test liquid were replaced with fresh liquids every 36 hours.

`CC[C@H]1OC(=O)[C@H](C)[C@@H](O[C@H]2C[C@@](C)(OC)[C@@H](O)[C@H](C)O2)[C@H](C)[C@@H](O[C@@H]2O[C@H](C)C[C@H](N(C)C)[C@H]2O)[C@](C)(O)C[C@@H](C)CN(C)[C@H](C)[C@@H](O)[C@]1(C)O` [AZM, Azithromycin]: the “MIC (μg/mL) from M100-S16” value in test [1] is 0.5 to 2 µg/mL.

Regarding `CC(C)(O/N=C(\C(=O)N[C@@H]1C(=O)N2C(C(=O)[O-])=C(C[n+]3ccccc3)CS[C@H]12)c1csc(N)n1)C(=O)O` [CAZ, Ceftazidime], the “MIC (μg/mL) from M100-S16” value in test [2] was 1 to 4 µg/mL; in test [3], 0.06 to 0.5 µg/mL; in test [1], 4 to 16 µg/mL.

With `CCCCCCCCCC(=O)CC(=O)Nc1ccccc1O` [Comparative Compound 1, reference compound], in test [4] (test liquid 100 μM), the “state of biofilm formation (fluorescence confocal microscope) compared with control test liquid” value (shortened to “state … compared with control test liquid”) is reported as “the huge, thick biofilm was observed as in the control test”. Further, the “Mean OD Value” in test [5] (HA disks, circulated 14 days) turned out to be 0.629.

By inhibition is commonly meant the change of the read-out against control, counted positive when it falls. Regarding `CCCC(=O)NN1CCCC1` [Comparative Compound 2, reference compound], the “state … compared with control test liquid” value in test [4] (test liquid 100 μM) was “the huge, thick biofilm was observed as in the control test”. Moreover, the “Mean OD Value” in test [5] (HA disks, circulated 14 days) was 0.719. The inhibition at 100 µM in test [5] (Porphyromonas gingivalis, 381STRAIN, 336 h, HA disks, circulated 14 days, relative to control test liquid (DMSO), read-out: Biofilm Formation Inhibition Rate (%)) is -49%.

Take `CCCC(=O)NN1CCCCC1` [Comparative Compound 3, reference compound]: in test [4] (test liquid 100 μM), the “state … compared with control test liquid” value was “the huge, thick biofilm was observed as in the control test”.

Turning to `CCCCCCCCCCCC(=O)NC1CCNC1` (stereo not shown) [Compound 1a-1, N-(pyrrolidin-3-yl) dodecanoyl amide], the “state … compared with control test liquid” value in test [4] (test liquid 250 μM) is given as “such biofilm formation was not observed”. In addition, in test [5], the “inhibition of biofilm formation caused by periodontitis pathogenic bacteria (conclusion in words)” value (“inhibition of biofilm formation caused” below) is given as “capable of inhibiting biofilm formation”. The “state of biofilm removal (disappearance of deposited biofilm, fluorescence confocal microscope)” value (“state of biofilm removal” below) in test [6] is “the gradual disappearance of the deposited biofilm with time was observed”.

`CCCCCCCCCCCC(=O)NC1CCNCC1` [Compound 1b-1, N-(piperidine-4-yl) dodecanoyl amide]: in test [4] (test liquid 250 μM), the “state … compared with control test liquid” value is reported as “such biofilm formation was not observed”. Moreover, the “inhibition of biofilm formation caused” value in test [5] is on record as “capable of inhibiting biofilm formation”. For the same compound, the “state of biofilm removal” value in test [6] was “the gradual disappearance of the deposited biofilm with time was observed”.

In the case of `CCCCCCCCCCCC(=O)NN1CCCC1` [Compound 1c-1, N-(pyrrolidin-1-yl) dodecanoyl amide], the “state … compared with control test liquid” value in test [4] (test liquid 100 μM) was “such biofilm formation was not observed”. In addition, in test [5], the “inhibition of biofilm formation caused” value is “capable of inhibiting biofilm formation”. In test [6], the “state of biofilm removal” value is on record as “the gradual disappearance of the deposited biofilm with time was observed”; the “time course of biofilm during removal test” value is “the biofilm was first reduced and then increased again after a six-day cultivation, before it reduced again until it disappeared”.

As to `CCCCCCCCCC(O)CC(=O)NN1CCCC1` (stereo not shown) [Compound 1c-2, N-(pyrrolidin-1-yl)-3-hydroxy dodecanoyl amide], the “state … compared with control test liquid” value in test [4] (test liquid 100 μM) is listed as “such biofilm formation was not observed”. In test [5], the “inhibition of biofilm formation caused” value is “capable of inhibiting biofilm formation”. For the same compound, in test [6], the “state of biofilm removal” value is recorded as “the gradual disappearance of the deposited biofilm with time was observed”; the “time course of biofilm during removal test” value is “the biofilm was first reduced and then increased again after a six-day cultivation, before it reduced again until it disappeared”.

As for `CCCCCCCCCCCC(=O)NN1CCCCC1` [Compound 1d-1, N-(piperidine-1-yl) dodecanoyl amide], the “state … compared with control test liquid” value in test [4] (test liquid 100 μM) is “such biofilm formation was not observed”.

The values are drawn from patent publication US9000190B2, “Amide compound or salt thereof, biofilm inhibitor, biofilm remover and disinfectant containing the same” (The University of Tokyo, priority 2006, dated 2015).
